# Source: patent US10576064B2, “Spiro[3H-indole-3,2′-pyrrolidin]-2(1H)-one compounds and derivatives as MDM2-P53 inhibitors” (Boehringer Ingelheim International GmbH, priority 2014, dated 2020)
# Biological target: p53-MDM2 interaction (GST-MDM2 protein aa 23-117 / biotinylated p53 wt peptide) (Homo sapiens (Human), UniProt Q00987)
# Test: MDM2-p53 Inhibition AlphaScreen
# Assay type: biochemical
# Settings: 20 nM GST-MDM2 (aa 23-117), 20 nM biotinylated p53 wt peptide
# Description: MDM2-p53 Inhibition AlphaScreen
row,SMILES,IC50 [µM]
1,O=C(O)c1ccc(CN2CC[C@H]3[C@@H](C2=O)[C@H](c2cccc(Cl)c2F)[C@]2(C(=O)Nc4cc(Cl)ccc42)N3CC2CC2)cc1 [Compound I-208],0.21
2,CC(C)(C)CN1[C@H]2CCN(Cc3ccc(C(=O)O)cc3)C(=O)[C@H]2[C@H](c2cccc(Cl)c2F)[C@]12C(=O)Nc1cc(Cl)ccc12 [Compound I-210],0.158
3,CCOc1cccc(CN2[C@H]3CCN(Cc4ccc(C(=O)O)cc4)C(=O)[C@H]3[C@H](c3cccc(Cl)c3F)[C@]23C(=O)Nc2cc(Cl)ccc23)c1 [Compound I-212],0.021
4,COc1cccc(CN2[C@H]3CCN(Cc4ccc(C(=O)O)cc4)C(=O)[C@H]3[C@H](c3cccc(Cl)c3F)[C@]23C(=O)Nc2cc(Cl)ccc23)c1 [Compound I-214],0.034
5,O=C(O)c1ccc(N2C[C@H]3[C@@H](C2=O)[C@H](c2cccc(Cl)c2F)[C@]2(C(=O)Nc4cc(Cl)ccc42)N3CC2CC2)cc1 [Compound I-216],0.006
6,O=C(O)c1ccc(N2C[C@H]3[C@@H](C2=O)[C@H](c2cccc(Cl)c2F)[C@]2(C(=O)Nc4cc(Cl)ccc42)N3CC2CC2)cc1 [Compound I-217],0.005
7,O=C(O)c1ccc(N2C[C@@H]3[C@H](C2=O)[C@@H](c2cccc(Cl)c2F)[C@@]2(C(=O)Nc4cc(Cl)ccc42)N3CC2CC2)cc1 [Compound I-218],0.46
8,COc1cc(C(=O)O)ccc1N1C[C@H]2[C@@H](C1=O)[C@H](c1cccc(Cl)c1F)[C@]1(C(=O)Nc3cc(Cl)ccc31)N2CC1CC1 [Compound I-219],0.031
9,O=C(O)c1ccc(N2C[C@H]3[C@@H](C2=O)[C@H](c2cccc(Cl)c2F)[C@]2(C(=O)Nc4cc(Cl)ccc42)N3CC2CCC2)cc1 [Compound I-221],0.007
10,O=C(O)c1ccc(N2C[C@@H]3[C@H](C2=O)[C@@H](c2cccc(Cl)c2F)[C@@]2(C(=O)Nc4cc(Cl)ccc42)N3CC2CCC2)cc1 [Compound I-223],0.271
11,COCCN1[C@H]2CN(c3ccc(C(=O)O)cc3)C(=O)[C@H]2[C@H](c2cccc(Cl)c2F)[C@]12C(=O)Nc1cc(Cl)ccc12 [Compound I-224],0.017
12,O=C(O)c1ccc(N2C[C@H]3[C@@H](C2=O)[C@H](c2cccc(Cl)c2F)[C@]2(C(=O)Nc4cc(Cl)ccc42)N3CCC(F)(F)F)cc1 [Compound I-226],0.012
13,CC(C)(C)CN1[C@H]2CN(c3ccc(C(=O)O)cc3)C(=O)[C@H]2[C@H](c2cccc(Cl)c2F)[C@]12C(=O)Nc1cc(Cl)ccc12 [Compound I-228],0.011
14,CC(C)(C)CN1[C@H]2CN(c3ccc(C(=O)O)cc3)C(=O)[C@H]2[C@H](c2cccc(Cl)c2F)[C@]12C(=O)Nc1cc(Cl)ccc12 [Compound I-229],0.005
15,O=C(O)c1ccc(N2C[C@H]3[C@@H](C2=O)[C@H](c2cccc(Cl)c2F)[C@]2(C(=O)Nc4cc(Cl)ccc42)N3CC2CC(F)(F)C2)cc1 [Compound I-230],0.005
16,O=C(O)c1csc(N2C[C@H]3[C@@H](C2=O)[C@H](c2cccc(Cl)c2F)[C@]2(C(=O)Nc4cc(Cl)ccc42)N3CC2CC2)n1 [Compound I-233],0.009
17,O=C(O)c1ccc(N2C[C@@H]3[C@H](C2=O)[C@@H](c2cccc(Cl)c2F)[C@@]2(C(=O)Nc4cc(Cl)ccc42)N3CC2CCCCC2)cc1 [Compound I-235],0.98
18,O=C(O)c1ccc(N2C[C@@H]3[C@H](C2=O)[C@@H](c2cccc(Cl)c2F)[C@@]2(C(=O)Nc4cc(Cl)ccc42)N3CC2CCCC2)cc1 [Compound I-236],0.488
19,CCOc1cccc(CN2[C@H]3CN(c4ccc(C(=O)O)cc4)C(=O)[C@H]3[C@H](c3cccc(Cl)c3F)[C@]23C(=O)Nc2cc(Cl)ccc23)c1 [Compound I-237],0.002
20,CCOc1cccc(CN2[C@@H]3CN(c4ccc(C(=O)O)cc4)C(=O)[C@@H]3[C@@H](c3cccc(Cl)c3F)[C@@]23C(=O)Nc2cc(Cl)ccc23)c1 [Compound I-239],1.16
21,CCOc1cccc(CN2[C@H]3CN(c4ccc(C(=O)O)cc4)C(=O)[C@H]3[C@H](c3cccc(Cl)c3F)[C@]23C(=O)Nc2nc(Cl)ccc23)c1 [Compound I-240],0.004
